SMILES strings stand for the structures. A value given as a limit tells only on which side of the number the result lay.

Common to all, as to type: cell-based
Series [1] relates to 3D model of human airway epithelium. The series can be described thus: Prostaglandin E2 ELISA on basal medium of bradykinin-stimulated 3D airway epithelia (MucilAir, MatTek). As for the experimental part:
(§1) Various compositions were tested for their ability to protect a 3D model of human airway epithelium, constituted with primary human epithelial cells freshly isolated from nasal (MucilAir™ nasal pool), or tracheal or bronchial biopsies (MatTek PE-200-6.5). MucilAir™ and MatTek tissues are reconstituted human 3D tissue from airways and lung surgical pieces, fully differentiated, pseudostratified in vitro epithelium. MucilAir™_Pool is of nasal polyp origin and reconstituted with a mixture of cells isolated from 14 different donors. […] MatTek tissues are from tracheo-bronchial origin. The respiratory epithelium lining the nose and throat have very similar histology and architecture. These two different models reconfirm that models from different origin have similar responses to treatment in the case that one model may have more underlying inflammation, or other variability with respect to its retrieval than another.
(§2) Compositions were formulated with various concentrations of acetylsalicylic acid (ASA 0.6 mg/ml or ASA 6 mg/ml) in an aqueous saline solution vehicle such as 0.9% NaCl, 1.25 mM CaCl2, 10 mM HEPES. 10 μL of each formulation was added apically either to the MucilAir™ or MatTek tissues. Formulations were either added 10 minutes after activation of an inflammatory response in the media (FIGS. 1A-B, 3A, 4A), or 5 minutes before activation of an inflammatory response in the media (FIGS. 2A-B, 3B, 4B). Due to the rate of saliva production and concomitant dilution of acetylsalicylic acid on the mucosa, administration of each concentration in vitro correlates to a 10× concentration in product form. For example, 0.6 mg/ml ASA in the in vitro measurements corresponds administration of 6 mg/ml ASA in compositions, and 6 mg/ml […] corresponds to administration of 60 mg/ml in compositions.
(§3) Typically, the inflammatory cytokine bradykinin stimulates the prostaglandin pathway (through arachidonic acid) which then stimulates IL-8, another inflammatory cytokine. […] The inflammatory response of the prostaglandin pathway was stimulated through the addition of 10 μL of 25 mg/ml bradykinin protein was applied to the apical side of the MucilAir™ media.
(§4) Four hours following bradykinin application various measurements of the inflammatory response were measured. Epithelia were washed twice with MucilAir™ culture medium in order to clean the inoculum. Liquid aliquots from the basal medium were collected and stored at −80° C. for future study.
(§5) Prostaglandin E2 or IL-8 enzyme-linked immunosorbent assays (ELISA) were performed on the liquid aliquots from the basal medium to determine the amount of prostaglandin E2 produced as a result of inflammatory conditions initiated in each test condition. […] Although, acetylsalicylic acid is typically administered in doses greater than these measured, this dosage increased the inflammatory response.
MatTek (tracheal bronchial tissue) or MucilAir (nasal polyps) 3D inserts were placed in pre-warmed media corresponding to each cell system and incubated for 15 minutes at 37° C. L of saliva (negative control) or treatment was added to the apical surfaces. 5 minutes later, 10 μL of saliva or bradykinin was added to the apical side as well. Bradykinin was obtained from Tocris or New England Peptide (NEP) as indicated. At 4 hours, samples from the basal media were collected and frozen at −80° for PGE-2 ELISA measurements. At 24 hours, the inserts were moved to fresh basal media (corresponding to each cell system) and 200 L of media were added to each apical side for TEER analysis as described previously. The plate was then incubated for 5 minutes. Following TEER measurements, the apical solution was removed and 10 μL of each treatment (or saliva) was added to the apical surface. No bradykinin was added. TEER was measured again at 48 hours. Additionally, at 24 hours and 48 hours, basal media was collected and frozen for IL-8 and LDH analyses. […]
On the technique in general: ELISA stands for enzyme-linked immunosorbent assay.

The test system is the same in series [2]. The series can be described thus: IL-8 ELISA on basal medium of bradykinin-stimulated 3D airway epithelia (MucilAir, MatTek). As for the experimental part:
as §1, §2, §3, §4, §5
MatTek (tracheal bronchial tissue) or MucilAir (nasal polyps) 3D inserts were placed in pre-warmed media corresponding to each cell system and incubated for 15 minutes at 37° C. L of saliva (negative control) or treatment was added to the apical surfaces. 5 minutes later, 10 μL of saliva or bradykinin was added to the apical side as well. Bradykinin was obtained from Tocris or New England Peptide (NEP) as indicated. At 4 hours, samples from the basal media were collected and frozen at −80° for PGE-2 ELISA measurements. […] TEER was measured again at 48 hours. […]

The test system is the same in series [3]. The following applies: 48 h, 6 mg/ml. On the procedure:
as §1, with “another. […]” for “another.”
Tissue integrity was also monitored using transepithelial electrical resistance (“TEER”) measurements. […]
For TEER measurements, 200 μL of warm MucilAir™ media or MatTek TEER buffer was applied on the apical side of each insert. […] The resistance (Ω) is read on the Voltohmmeter and the TEER value was calculated with the following formula: TEER (Ω·cm^2)=(resistance value (Ω)−100 (Ω))×0.33 (cm^2). […]

The mark [4] stands for this setting: dose above the therapeutic window.
Setting [5] is: overall statement, concentration not given.

Turning to `CC(=O)Oc1ccccc1C(=O)O` [ASA, acetylsalicylic acid], the “prostaglandin E2 production (inflammatory response) versus positive control” value in series [1] (0.6 mg/ml ASA added 5 minutes before bradykinin (FIGS. 2A, 2B)) is given as “did inhibit inflammation in a statistically significant manner”; in series [1] (0.6 mg/ml ASA added 10 minutes after bradykinin, measured 4 hours after bradykinin (FIGS. 1A, 1B)) it was “resulted in an anti-inflammatory response”; in series [1] (6 mg/ml ASA added 5 minutes before bradykinin (FIG. 2A)) it was “no statistical significance with respect to positive control”; in series [1] (6 mg/ml ASA added 10 minutes after bradykinin, measured 4 hours after bradykinin (FIG. 1A)), “increased the inflammatory response in a statistically significant matter”. Also, in series [1] (setting [4]), the “PGE2 relative to maximum bradykinin-induced level” value was “increased”. Further, in series [1] (setting [5]), the “PGE-2 levels (bradykinin induced)” value is given as “significantly decreasing”. Moreover, the IL-8 concentration entry is listed as “A similar result was not observed” in series [2] (0.6 mg/ml ASA, therapeutic and prophylactic modalities (FIGS. 4A, 4B)); “significantly greater” in series [2] (6 mg/ml ASA, prophylactic modality (added before bradykinin, FIG. 4B)); “significantly greater” in series [2] (6 mg/ml ASA, therapeutic modality (added after bradykinin, FIG. 4A)). The “IL-8 relative to maximum bradykinin-induced level” value in series [2] (setting [4]) is on record as “increased”. The “levels of IL-8 protein” value in series [2] (setting [5]) was “did not appreciably decrease”. In addition, the “TEER (barrier function of the epithelia)” value in series [3] is listed as < 100 Ω·cm^2.
